The subject of series [1] is Plasmodium falciparum. As to the kind of experiment: Antimalarial activity against chloroquine-resistant Plasmodium falciparum W2 by in vitro cell culture method. The series is classed as functional, organism-based.
For series [2], the system named is Plasmodium falciparum. Put plainly: Antimalarial activity against chloroquine-sensitive Plasmodium falciparum 3D7 by in vitro cell culture method. The series is classed as functional, organism-based.
Another series concerns K562. As to the kind of experiment: Cytotoxicity against Homo sapiens (human) K562 cells by Sulphorhodamine B assay. The series is classed as cell-based. (In SRB staining, fixed cells bind dye roughly in proportion to their protein.)
Series [3] is described as follows: Selectivity index, ratio of IC50 for human K562 cells to IC50 for chloroquine-resistant Plasmodium falciparum W2. The series is classed as toxicity, cell-based. The settings on record: read-out: Ratio IC50.
A short description of series [4]: Selectivity index, ratio of IC50 for human K562 cells to IC80 for chloroquine-sensitive Plasmodium falciparum 3D7. The series is classed as toxicity, cell-based. As to conditions: read-out: Selectivity Index.
Series [5] can be described thus: Selectivity index, ratio of IC50 for human K562 cells to IC50 for chloroquine-sensitive Plasmodium falciparum 3D7. The series is classed as toxicity, cell-based. The settings on record: read-out: Ratio IC50.
In series [6] the test system is Plasmodium falciparum. As to the kind of experiment: Antimalarial activity against Plasmodium falciparum by [3H]-hypoxanthine incorporation assay. The series is classed as functional, organism-based.

The values that follow come from ChEMBL document CHEMBL3044612, “Design, synthesis and biological evaluation of some novel 3-cinnamoyl-4-hydroxy-2H-chromen-2-ones as antimalarial agents” (Med Chem Res, 2012).

≈ marks a conversion by molar mass, not a printed value. A value given as a limit tells only on which side of the number the result lay.

Usually IC50 stands for the concentration at which inhibition is half-maximal. Read a high IC50 as lower potency. For orientation: IC80 means the concentration needed for an effect of 80%. A lower IC80 goes with an effect from little substance.

`COc1cc(/C=C/C(=O)c2c(O)c3ccccc3oc2=O)ccc1O` gave an IC50 in the series on Plasmodium falciparum [1] of 61.3 µg/mL (≈ 181 µM). In the series on Plasmodium falciparum [2], this compound displayed an IC50 of 11.2 µg/mL (≈ 33.1 µM) and an IC80 of 27.2 µg/mL (≈ 80.4 µM).

In the case of `O=C(/C=C/c1ccco1)c1c(O)c2ccccc2oc1=O`, the IC50 with Plasmodium falciparum [2] is greater than 50 µg/mL.

With `COc1ccc(/C=C/C(=O)c2c(O)c3ccccc3oc2=O)cc1`, the IC50 with Plasmodium falciparum [1] stood at 35.8 µg/mL (≈ 111 µM); in the series with Plasmodium falciparum [2] it was 7.2 µg/mL (≈ 22.3 µM). Further, in the series with Plasmodium falciparum [2], the 80% effect level (IC80) was put at 6.2 µg/mL (≈ 19.2 µM).

Take `O=C(/C=C/c1ccccc1Cl)c1c(O)c2ccccc2oc1=O`: the IC50 in the series on K562 is 124 µg/mL (≈ 378 µM); in the series on Plasmodium falciparum [2], greater than 50 µg/mL.

For `COc1ccc(/C=C/C(=O)c2c(O)c3ccccc3oc2=O)cc1OC`, the selectivity ratio is 3.25 in series [3], 4.73 in series [4] and 11.5 in series [5]. The IC50 in the series with K562 is 71.4 µg/mL (≈ 203 µM); in the series with Plasmodium falciparum [1], 22 µg/mL (≈ 62.4 µM); in the series with Plasmodium falciparum [2], 6.2 µg/mL (≈ 17.6 µM). For the same compound, it took 15.1 µg/mL (≈ 42.9 µM) to reach the 80% level in the series on Plasmodium falciparum [2] (IC80).

`O=C(/C=C/c1cccc([N+](=O)[O-])c1)c1c(O)c2ccccc2oc1=O`: the selectivity ratio in series [3] turned out to be 2.8; in series [4] it was 6.02; in series [5] it was 9.72. In addition, the IC50 in the series with K562 amounted to 152 µg/mL (≈ 450 µM); in the series with Plasmodium falciparum [1], 54.1 µg/mL (≈ 160 µM); with Plasmodium falciparum [2], 15.6 µg/mL (≈ 46.3 µM). For the same compound, the IC80 in the series with Plasmodium falciparum [2] was determined as 25.2 µg/mL (≈ 74.7 µM).

Regarding `O=C(/C=C/c1ccc(Cl)cc1)c1c(O)c2ccccc2oc1=O`, the selectivity ratio in series [3] came to 4.94; in series [4], 2.26; in series [5], 6.29. In addition, the IC50 was 32.1 µg/mL (≈ 98.2 µM) with K562, 6.5 µg/mL (≈ 19.9 µM) in the series on Plasmodium falciparum [1] and 5.1 µg/mL (≈ 15.6 µM) with Plasmodium falciparum [2]. In addition, the 80% effect level with Plasmodium falciparum [2] (IC80) was put at 14.2 µg/mL (≈ 43.5 µM).

Consider `O=C(/C=C/c1ccc([N+](=O)[O-])cc1)c1c(O)c2ccccc2oc1=O`, for which the selectivity ratio in series [3] was 38.5; in series [4], 22; in series [5] it was 49.7. Besides, the 50% inhibitory concentration (IC50) in the series with K562 came out at 154 µg/mL (≈ 457 µM); with Plasmodium falciparum [1] it was 4 µg/mL (≈ 11.9 µM); in the series with Plasmodium falciparum [2], 3.1 µg/mL (≈ 9.19 µM). In addition, it took 7 µg/mL (≈ 20.8 µM) to reach the 80% level in the series on Plasmodium falciparum [2] (IC80).

In the series on K562, `CCN(CC)CCCC(C)Nc1ccnc2cc(Cl)ccc12` (stereo unspecified) [CHLOROQUINE] yielded a 50% inhibitory concentration (IC50) of 43.8 µg/mL (≈ 137 µM). The compound further gave an IC80 in the series on Plasmodium falciparum [2] of 0.0401 µg/mL (≈ 0.125 µM).

For `O=C(/C=C/c1ccc(Cl)cc1Cl)c1c(O)c2ccccc2oc1=O`, the IC50 in the series with K562 was 149 µg/mL (≈ 413 µM); in the series on Plasmodium falciparum [2], greater than 50 µg/mL.

In the series on Plasmodium falciparum [1], `O=C(/C=C/c1cccc(Cl)c1)c1c(O)c2ccccc2oc1=O` had an IC50 of 6.2 µg/mL (≈ 19 µM). In addition, in the series with Plasmodium falciparum [2], the IC50 is 4.2 µg/mL (≈ 12.9 µM) and the 80% effect concentration (IC80) turned out to be 9 µg/mL (≈ 27.5 µM).

For the compound `COc1ccc(/C=C/C(=O)c2c(O)c3ccccc3oc2=O)c(OC)c1OC`, the selectivity ratio was determined as 0.83 in series [3], 2.3 in series [4] and 5.48 in series [5]. Also, the figures for the IC50 with K562, in the series on Plasmodium falciparum [1] and with Plasmodium falciparum [2] were 46.6 µg/mL (≈ 122 µM), 56.1 µg/mL (≈ 147 µM) and 8.5 µg/mL (≈ 22.2 µM), respectively. The IC80 in the series on Plasmodium falciparum [2] came out at 20.3 µg/mL (≈ 53.1 µM).

Consider `Cc1ccc(/C=C/C(=O)c2c(O)c3ccccc3oc2=O)cc1`, for which the IC50 with Plasmodium falciparum [1] turned out to be 5.1 µg/mL (≈ 16.6 µM); with Plasmodium falciparum [2], 6.1 µg/mL (≈ 19.9 µM). This compound also came in with an IC80 in the series with Plasmodium falciparum [2] of 15 µg/mL (≈ 49 µM).

For the compound `O=c1ccc2ccc(O)c(O)c2o1` [DAPHNETIN], half-maximal inhibition with Plasmodium falciparum [6] (IC50) required 25 µM.

With `COc1cc(/C=C/C(=O)c2c(O)c3ccccc3oc2=O)cc(OC)c1OC`, the IC50 in the series with K562 was 103 µg/mL (≈ 270 µM); in the series on Plasmodium falciparum [2] it was greater than 50 µg/mL.

Regarding `CN(C)c1ccc(/C=C/C(=O)c2c(O)c3ccccc3oc2=O)cc1`, the selectivity ratio is 2.29 in series [3], 7.08 in series [4] and 9.1 in series [5]. Moreover, the IC50 in the series on K562 worked out at 156 µg/mL (≈ 467 µM); with Plasmodium falciparum [1] it was 68.2 µg/mL (≈ 203 µM); with Plasmodium falciparum [2], 17.2 µg/mL (≈ 51.3 µM). In the series on Plasmodium falciparum [2], this compound showed an IC80 of 22.1 µg/mL (≈ 65.9 µM).

Take `O=C(/C=C/c1ccccc1)c1c(O)c2ccccc2oc1=O`: the selectivity ratio worked out at 9.02 in series [3], 1.76 in series [4] and 4.49 in series [5]. The concentration for half-maximal inhibition (IC50) in the series with K562 turned out to be 99.2 µg/mL (≈ 339 µM); with Plasmodium falciparum [1] it was 11 µg/mL (≈ 37.6 µM); in the series on Plasmodium falciparum [2], 22.1 µg/mL (≈ 75.6 µM). In addition, the IC80 in the series on Plasmodium falciparum [2] is 56.3 µg/mL (≈ 193 µM).
